Each block holds one molecule with its values, some of them ahead of it.
How the values were obtained:
[1] = Stability against racemization (chiral HPLC); assay type: physicochemical
Description: Test Example 7: Stability Against Racemization Each test sample (1 mg) was dissolved in CH3CN (1 mL), and 0.1 M N-methylmorpholine aqueous solution (adjusted to pH 7.4 with 1N HCl) (1 mL) was added to dilute the solution twofold, thereby preparing a solution with a final concentration of 0.5 mg/mL. The sample was divided into nine portions of 150 μL each, and each portion was placed in a sampler set to 37° C. The enantiomers in the sample were quantified at 0, 1, 3, 6, 24, 48, 72, and 167 hours under the following HPLC conditions, and the enantiomeric excess (ee) at each time point was calculated.
As test samples, Example Compound 211-1 was used as an example, while (S)-thalidomide represented by the following formula
• Equipment: ACQUITY UPLC H-Class Waters • Column: […] IE-3 (3 μm, 4.6×150 mm) Daicel Corporation • Flow rate: 0.5 mL/min • Column temperature: 25° C.
• Mobile phase: 100% MeOH • Injection volume: 0.7 μL • Detection wavelength: 217.0 nm
• Mobile phase: 100% MeOH • Injection volume: 1.2 μL • Detection wavelength: 221.0 nm
• Mobile phase: EtOH/CH3CN=90/10 • Injection volume: 1.5 μL • Detection wavelength: 221.0 nm

CRBN truncate (318-426) = CRBN truncate (318-426) (Homo sapiens (Human), UniProt Q96SW2); assay: Measurement of molecular interactions using surface plasmon resonance (SPR), Biacore T200; assay type: binding; conditions: 25° C., immobilized CRBN truncate, upper limit of measurement 200 μM
Chain of CRBN truncate (318-426) (Q96SW2 318-426): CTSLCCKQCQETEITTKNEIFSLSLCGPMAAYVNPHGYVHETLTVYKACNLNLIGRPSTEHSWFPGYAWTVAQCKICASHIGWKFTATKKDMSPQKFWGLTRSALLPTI
Summary of the method: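 Compound injections used 60 s association and 120 s dissociation in HEPES pH 7.5 buffer (150 mM NaCl, 1 mM TCEP, 0.005% Tween 20, 2% DMSO). The ligand was CRBN truncate 318-426 bearing a C-terminal Avi-tag, immobilised via streptavidin on an SA sensor chip.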

[2] = 0 h, pH 7.4, 37° C., CH3CN/0.1 M N-methylmorpholine aqueous solution

Structure (SMILES): Cn1c(=O)n([C@@H]2CCCC(=O)NC2=O)c2cccc(I)c21 (stereo in doubt) [Example 211-1, 3-(4-Iodo-3-methyl-2-oxobenzimidazol-1-yl) azepane-2,7-dione]
ee Normalized to 100 at 0 min ([1]; 0 h, pH 7.4, 37° C.): 100
ee [1, 2]: 99.43
ee ([1]; 24 h, pH 7.4, 37° C.): 87.71
ee Normalized to 100 at 0 min ([1]; 24 h, pH 7.4, 37° C.): 88.21
ee ([1]; 48 h, pH 7.4, 37° C.): 77.71
ee Normalized to 100 at 0 min ([1]; 48 h, pH 7.4, 37° C.): 78.16
ee ([1]; 72 h, pH 7.4, 37° C.): 70.06
ee Normalized to 100 at 0 min ([1]; 72 h, pH 7.4, 37° C.): 70.46
ee ([1]; 167 h, pH 7.4, 37° C.): 41.83
ee Normalized to 100 at 0 min ([1]; 167 h, pH 7.4, 37° C.): 42.07
ee ([1]; Initial): 99.44

Structure (SMILES): O=C1CC[C@H](N2C(=O)c3ccccc3C2=O)C(=O)N1 [(S) Thalidomide, (S)-thalidomide]
ee Normalized to 100 at 0 min ([1]; 0 h, pH 7.4, 37° C.): 100
ee [1, 2]: 92.11
ee ([1]; 24 h, pH 7.4, 37° C.): 73.31
ee Normalized to 100 at 0 min ([1]; 24 h, pH 7.4, 37° C.): 79.59
ee ([1]; 48 h, pH 7.4, 37° C.): 58.25
ee Normalized to 100 at 0 min ([1]; 48 h, pH 7.4, 37° C.): 63.24
ee ([1]; 72 h, pH 7.4, 37° C.): 46.27
ee Normalized to 100 at 0 min ([1]; 72 h, pH 7.4, 37° C.): 50.23
ee ([1]; 167 h, pH 7.4, 37° C.): 18.57
ee Normalized to 100 at 0 min ([1]; 167 h, pH 7.4, 37° C.): 20.16
ee ([1]; Initial): 92.16

Structure (SMILES): Cn1c(=O)n([C@@H]2CCC(=O)NC2=O)c2cccc(I)c21 [Compound A′]
ee Normalized to 100 at 0 min ([1]; 0 h, pH 7.4, 37° C.): 100
ee [1, 2]: 96.08
ee ([1]; 24 h, pH 7.4, 37° C.): 77.77
ee Normalized to 100 at 0 min ([1]; 24 h, pH 7.4, 37° C.): 80.94
ee ([1]; 48 h, pH 7.4, 37° C.): 62.84
ee Normalized to 100 at 0 min ([1]; 48 h, pH 7.4, 37° C.): 65.4
ee ([1]; 72 h, pH 7.4, 37° C.): 50.69
ee Normalized to 100 at 0 min ([1]; 72 h, pH 7.4, 37° C.): 52.76
ee ([1]; 167 h, pH 7.4, 37° C.): 21.53
ee Normalized to 100 at 0 min ([1]; 167 h, pH 7.4, 37° C.): 22.41
ee ([1]; Initial): 95.39

Structure (SMILES): Cc1sc2c(c1C)C(c1ccc(Cl)cc1)=N[C@@H](CC(=O)NCCCCCCCCCCC(=O)N1CCC(c3cccc(NC45CCC(CC4)C(=O)NC5=O)c3)CC1)c1nnc(C)n1-2 [Example 355, 2-[(9S)-7-(4-chlorophenyl)-4,5,13-trimethyl-3-thia-1,8,11,12-tetraazatricyclo[8.3.0.02,6]trideca-2(6),4,7,10,12-pentaen-9-yl]-N-[11-[4-[3-[(2,4-dioxo-3-azabicyclo[3.2.2]nonan-1-yl)amino]phenyl]piperidin-1-yl]-11-oxoundecyl]acetamide]
Kd (CRBN truncate (318-426)): 50 to 100 µM

Structure (SMILES): Cc1sc2c(c1C)C(c1ccc(Cl)cc1)=N[C@@H](CC(=O)NCCCCCCCCCCC(=O)N1CCC(c3ccc(OC4CCCC(=O)NC4=O)cc3)CC1)c1nnc(C)n1-2 (some centres unmarked) [Example 356]
Kd (CRBN truncate (318-426)): < 50 µM

Structure (SMILES): Cc1sc2c(c1C)C(c1ccc(Cl)cc1)=N[C@@H](CC(=O)NCCCCCCCCCCC(=O)N1CCc3c(ncnc3N3CC4(CC(=O)N(C5CCC(=O)NC5=O)C4=O)C3)C1)c1nnc(C)n1-2 (stereo partly drawn) [Example 357, 2-[(9S)-7-(4-chlorophenyl)-4,5,13-trimethyl-3-thia-1,8,11,12-tetraazatricyclo[8.3.0.02,6]trideca-2(6),4,7,10,12-pentaen-9-yl]-N-[11-[4-[6-(2,6-dioxo-3-piperidyl)-5,7-dioxo-2,6-diazaspiro[3.4]octan-2-yl]-6,8-dihydro-5H-pyrido[3,4-d]pyrimidin-7-yl]-11-oxo-undecyl]acetamide]
Kd (CRBN truncate (318-426)): < 50 µM

Second part, the molecule after the results:

Kd (CRBN truncate (318-426)): < 50 µM
Structure (SMILES): Cc1sc2c(c1C)C(c1ccc(Cl)cc1)=N[C@@H](CC(=O)NCCCCCCCCNC(=O)CCc1ccc3c(N4CCCC(=O)NC4=O)nn(C)c3c1)c1nnc(C)n1-2 [Example 346, N-[8-[[2-[(9S)-7-(4-chlorophenyl)-4,5,13-trimethyl-3-thia-1,8,11,12-tetraazatricyclo[8.3.0.02,6]trideca-2(6),4,7,10,12-pentaen-9-yl]acetyl]amino]octyl]-3-[3-(2,4-dioxo-1,3-diazepan-1-yl)-1-methyl-indazol-6-yl]propanamide]

Kd (CRBN truncate (318-426)): < 50 µM
Structure (SMILES): Cc1sc2c(c1C)C(c1ccc(Cl)cc1)=N[C@@H](CC(=O)NCCCCCCCNC(=O)COc1cccc(C(=O)NC3CCCC(=O)NC3=O)n1)c1nnc(C)n1-2 (stereo partly drawn) [Example 347, 6-[2-[7-[[2-[(9S)-7-(4-chlorophenyl)-4,5,13-trimethyl-3-thia-1,8,11,12-tetraazatricyclo[8.3.0.02,6]trideca-2(6),4,7,10,12-pentaen-9-yl]acetyl]amino]heptylamino]-2-oxo-ethoxy]-N-(2,7-dioxoazepan-3-yl)pyridine-2-carboxamide]

Kd (CRBN truncate (318-426)): < 50 µM
Structure (SMILES): Cc1sc2c(c1C)C(c1ccc(Cl)cc1)=N[C@@H](CC(=O)NCCCCCCCCNC(=O)/C=C/c1cccc3c1N(C)C(=O)C3(C)N1C=CCC(=O)NC1=O)c1nnc(C)n1-2 (stereo partly drawn) [Example 348, (E)-N-[8-[[2-[(9S)-7-(4-chlorophenyl)-4,5,13-trimethyl-3-thia-1,8,11,12-tetrazatricyclo[8.3.0.02,6]trideca-2(6),4,7,10,12-pentaen-9-yl]acetyl]amino]octyl]-3-[3-(2,4-dioxo-5H-1,3-diazepin-1-yl)-1,3-dimethyl-2-oxoindolin-7-yl]prop-2-enamide]

Kd (CRBN truncate (318-426)): < 50 µM
Structure (SMILES): Cc1sc2c(c1C)C(c1ccc(Cl)cc1)=N[C@@H](CC(=O)NCCCCCCCNC(=O)Cn1c(=O)c(=O)n(C3CCCC(=O)NC3=O)c3ccccc31)c1nnc(C)n1-2 (stereo partly drawn) [Example 350, 2-[(9S)-7-(4-chlorophenyl)-4,5,13-trimethyl-3-thia-1,8,11,12-tetraazatricyclo[8.3.0.02,6]trideca-2(6),4,7,10,12-pentaen-9-yl]-N-[7-[[2-[4-(2,7-dioxoazepan-3-yl)-2,3-dioxo-quinoxalin-1-yl]acetyl]amino]heptyl]acetamide]

Kd (CRBN truncate (318-426)): < 50 µM
Structure (SMILES): Cc1sc2c(c1C)C(c1ccc(Cl)cc1)=N[C@@H](CC(=O)NCCCCCCCCNC(=O)CN1C(=O)[C@@](C)(N3CCCC(=O)NC3=O)c3ccccc31)c1nnc(C)n1-2 [Example 352, 2-[(9S)-7-(4-Chlorophenyl)-4,5,13-trimethyl-3-thia-1,8,11,12-tetraazatricyclo[8.3.0.02,6]trideca-2(6),4,7,10,12-pentaen-9-yl]-N-[8-[[2-[3-(2,4-dioxo-1,3-diazepan-1-yl)-3-methyl-2-oxoindol-1-yl]acetyl]amino]octyl]acetamide]

Kd (CRBN truncate (318-426)): < 50 µM
Structure (SMILES): Cc1sc2c(c1C)C(c1ccc(Cl)cc1)=N[C@@H](CC(=O)NCCCCCCCCCCC(=O)N1CCC(c3cnc(N4CCC5(CCCC(=O)NC5=O)C4)nc3)CC1)c1nnc(C)n1-2 (stereo partly drawn) [Example 354, 2-[(9S)-7-(4-Chlorophenyl)-4,5,13-trimethyl-3-thia-1,8,11,12-tetraazatricyclo[8.3.0.02,6]trideca-2(6),4,7,10,12-pentaen-9-yl]-N-[11-[4-[2-(6,8-dioxo-2,7-diazaspiro[4.6]undecan-2-yl)pyrimidin-5-yl]piperidin-1-yl]-11-oxoundecyl]acetamide]

Kd (CRBN truncate (318-426)): < 50 µM
Structure (SMILES): C[C@@H]1Cc2c([nH]c3ccccc23)[C@@H](c2cnc(N3CCC(CN(C)CCCCCCCc4cccc5c4n(C)c(=O)n5C4CCCC(=O)NC4=O)CC3)nc2)N1CC(C)(C)F (stereo partly drawn) [Example 360-3, 3-[4-[7-[[1-[5-[(1R,3R)-2-(2-fluoro-2-methyl-propyl)-3-methyl-1,3,4,9-tetrahydropyrido[3,4-b]indol-1-yl]pyrimidin-2-yl]-4-piperidyl]methyl-methyl-amino]heptyl]-3-methyl-2-oxo-benzimidazol-1-yl]azepane-2,7-dione]

Kd (CRBN truncate (318-426)): < 50 µM
Structure (SMILES): C[C@@H]1Cc2c([nH]c3ccccc23)[C@@H](c2cnc(N3CCC(CN(C)CCCCCCCc4ccc(C(=O)N5CCC6(CCCC(=O)NC6=O)C5)cc4)CC3)nc2)N1CC(C)(C)F (stereo partly drawn) [Example 361-2, 2-[4-[7-[[1-[5-[(1R,3R)-2-(2-fluoro-2-methyl-propyl)-3-methyl-1,3,4,9-tetrahydropyrido[3,4-b]indol-1-yl]pyrimidin-2-yl]-4-piperidyl]methyl-methyl-amino]heptyl]benzoyl]-2,7-diazaspiro[4.6]undecane-6,8-dione]
